Measured values from patent US20100168421A1, “A NEW PEPTIDE DEFORMYLASE INHIBITOR COMPOUND AND MANUFACTURING PROCESS THEREOF” (priority 2007, published 2010).
≈ marks a conversion by molar mass, not a printed value. Where two headings read alike, the source gives them in different places.

Experiments:
PDF enzyme [1] = molecular target: PDF enzyme (Streptococcus pyogenes serotype M1, UniProt P68771); assay: PDF/FDH coupled enzyme assay, Streptococcus pyogenes; assay type: biochemical
PDF enzyme [2] = molecular target: PDF enzyme (Escherichia coli, UniProt P0A6K3); assay: PDF/FDH coupled enzyme assay, E. coli; assay type: biochemical
Sequence of PDF enzyme (Escherichia coli, UniProt P0A6K3) (P0A6K3 whole entry): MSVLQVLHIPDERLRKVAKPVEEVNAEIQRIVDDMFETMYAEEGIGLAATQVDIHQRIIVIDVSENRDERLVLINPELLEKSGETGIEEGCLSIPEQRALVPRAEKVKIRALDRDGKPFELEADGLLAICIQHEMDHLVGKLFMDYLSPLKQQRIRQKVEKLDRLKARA
Experimental: Activities of PDF enzyme for E. coli and S. aureus were determined using PDF/FDH coupled assay. In this coupled assay, the formate released by PDF from its substrate formyl-Methionine-Alanine-Serine (fMAS) is oxidized by coupling enzyme formate dehydrogenase (FDH), reducing one molecule of NAD^+ to NADH, which is measured absorption at 340 nm.

PDF enzyme [3] = molecular target: T1, PDF enzyme (Streptococcus pneumoniae serotype 4, UniProt Q9F2F0); assay: PDF/FDH coupled enzyme assay, Streptococcus Pneumoniae; assay type: biochemical; details: substrate fMAS, absorption at 340 nm
T1 sequence (Q9F2F0 1-203): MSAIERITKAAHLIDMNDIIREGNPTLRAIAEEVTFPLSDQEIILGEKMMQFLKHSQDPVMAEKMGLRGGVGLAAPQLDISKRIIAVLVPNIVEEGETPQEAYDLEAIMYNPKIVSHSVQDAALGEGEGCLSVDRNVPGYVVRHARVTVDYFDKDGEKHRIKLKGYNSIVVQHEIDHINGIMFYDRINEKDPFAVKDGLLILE

[4] = test system: Streptococcus Pneumoniae Pen S; assay: MIC microdilution, S. Pneumoniae Pen S; assay type: cell-based; details: read-out: MIC Streptococcus Pneumoniae Pen S
Experimental: (§1) Minimum inhibitory concentrations (MICs) were determined using the microdilution method in 96-well format plates. Each of the compounds of Examples was dissolved in dimethyl sulfoxide to a concentration of 2 mg/mL and stored at 4° C. until used. They were diluted in Mueller-Hinton Broth (MHB) and used for MIC determination. The range of concentrations tested was […] final concentration using a two-fold dilution system. Plates were incubated at 37° C. and MIC were recorded after 24 hours of incubation for bacteria.
(§2) Linezolid and vancomycin were used as standard antibiotics, respectively.

Streptococcus pyogenes = assay: MIC microdilution, S. pyogenes; assay type: cell-based; details: read-out: MIC Streptococcus pyogenes
Experimental: as §1, §2

[5] = test system: Vancomycin-resistant Enterococcus faecalis; assay: MIC microdilution, VR E. faecalis; assay type: cell-based; details: read-out: MIC Vancomycin-resistant Enterococcus faecalis
Experimental: as §1, §2

[6] = test system: Vancomycin-resistant Enterococcus faecium; assay: MIC microdilution, VR E. faecium; assay type: cell-based; details: read-out: MIC Vancomycin-resistant Enterococcus faecium
Experimental: as §1, §2

[7] = test system: Streptococcus Pneumoniae Pen NS; assay: MIC microdilution, S. Pneumoniae Pen NS; assay type: cell-based; details: read-out: MIC Streptococcus Pneumoniae Pen NS
Experimental: as §1, §2

[8] = Acute toxicity study in mice; details: mouse, in vivo, po, 4000 mg/kg; ICR mice, orally, observed for 14 days
Experimental: The acute toxicity of the compounds of Example 5, 17 and 22 were tested using several groups of ICR mice each of 6 mice.

[9] = PDF/FDH coupled assay, substrate fMAS, absorption at 340 nm, read-out: IC50 Streptococcus pyogenes
[10] = microdilution, Mueller-Hinton Broth, 37° C., 24 hours
[11] = PDF/FDH coupled assay, substrate fMAS, absorption at 340 nm, read-out: IC50 Escherichia coli

Sequence of PDF enzyme (Streptococcus pyogenes serotype M1, UniProt P68771) (P68771 whole entry): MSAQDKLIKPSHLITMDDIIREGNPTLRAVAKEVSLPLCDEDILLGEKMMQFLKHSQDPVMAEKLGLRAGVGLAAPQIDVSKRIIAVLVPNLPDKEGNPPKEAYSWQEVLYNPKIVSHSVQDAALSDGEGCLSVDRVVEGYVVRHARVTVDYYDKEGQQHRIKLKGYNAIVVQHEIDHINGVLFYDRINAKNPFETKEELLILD

Compound | IC50 (PDF enzyme [1]) | IC50 (PDF enzyme [2]) | IC50 (PDF enzyme [3]) | IC50 (PDF enzyme [1]; [9]) | MIC [4, 10] | IC50 (PDF enzyme [2]; [11]) | MIC (Streptococcus pyogenes; [10]) | MIC [5, 10] | MIC [6, 10] | MIC [7, 10] | also measured
Cc1ccc(CNC2CCN(C(=O)[C@@H](NC(=O)[C@@H](CC(=O)NO)CC3CCCC3)C(C)(C)C)CC2)cc1 [Example 1, (R)-2-Cyclopentylmethyl-N^1-{(S)-2,2-dimethyl-1-[4-(4-methyl-benzylamino)-piperidine-1-carbonyl]-propyl}-N^4-hydroxy-succinamide] | 70 nM | 150 nM | 65 nM | – | – | – | – | – | – | – | –
Cc1ccc(CNC2CCN(C(=O)[C@@H](NC(=O)[C@H](CC3CCCC3)CN(O)C=O)C(C)(C)C)CC2)cc1 [Example 2, (R)-2-Cyclopentylmethyl-N-{(S)-2,2-dimethyl-1-[4-(4-methyl-benzylamino)-piperidine-1-carbonyl]-propyl}-3-(formyl-hydroxy-amino)-propionamide] | – | – | 77 nM | 86 nM | 0.1 µg/mL (≈ 0.194 µM) | 132 nM | 0.2 µg/mL (≈ 0.389 µM) | 3.1 µg/mL (≈ 6.02 µM) | 0.4 µg/mL (≈ 0.777 µM) | 0.4 µg/mL (≈ 0.777 µM) | –
COc1ccc(CNC2CCN(C(=O)[C@@H](NC(=O)[C@H](CC3CCCC3)CN(O)C=O)C(C)(C)C)CC2)cc1 [Example 5, (R)-2-Cyclopentylmethyl-3-(formyl-hydroxy-amino)-N-{(S)-1-[4-(4-methoxy-benzylamino)-piperidine-1-carbonyl]-2,2-dimethyl-propyl}-propionamide] | – | – | – | – | 0.2 µg/mL (≈ 0.377 µM) | – | 0.4 µg/mL (≈ 0.754 µM) | 6.3 µg/mL (≈ 11.9 µM) | 1.6 µg/mL (≈ 3.01 µM) | 0.8 µg/mL (≈ 1.51 µM) | LD50 at 14 days [8]: > 2000 mg/kg
CC(C)(C)[C@H](NC(=O)[C@H](CC1CCCC1)CN(O)C=O)C(=O)N1CCC(NCc2ccc(O)cc2)CC1 [Example 6, (R)-2-Cyclopentylmethyl-3-(formyl-hydroxy-amino)-N-{(S)-1-[4-(4-hydroxy-benzylamino)-piperidine-1-carbonyl]-2,2-dimethyl-formyl}-propionamide] | – | – | 42 nM | 84 nM | 0.8 µg/mL (≈ 1.55 µM) | 102 nM | 0.8 µg/mL (≈ 1.55 µM) | > 50 µg/mL | 50 µg/mL (≈ 96.8 µM) | 3.1 µg/mL (≈ 6 µM) | –
CC(C)(C)[C@H](NC(=O)[C@H](CC1CCCC1)CN(O)C=O)C(=O)N1CCC(NCc2ccc(F)cc2F)CC1 [Example 10, (R)-2-Cyclopentylmethyl-N-{(S)-1-[4-(2,4-difluoro-benzylamino)-piperidine-1-carbonyl]-2,2-dimethyl-propyl}-3-(formyl-hydroxy-amino)-propionamide] | 83 nM | 122 nM | 55 nM | – | – | – | – | – | – | – | –
CC(C)(C)[C@H](NC(=O)[C@H](CC1CCCC1)CN(O)C=O)C(=O)N1CCC(NCc2ccc(O)c(O)c2)CC1 [Example 13, (R)-2-Cyclopentylmethyl-N-{(S)-1-[4-(3,4-dihydroxy-benzylamino)-piperidine-1-carbonyl]-2,2-dimethyl-propyl}-3-(formyl-hydroxy-amino)-propionamide] | 88 nM | 133 nM | 46 nM | – | – | – | – | – | – | – | –
CC(C)(C)[C@H](NC(=O)[C@H](CC1CCCC1)CN(O)C=O)C(=O)N1CCC(Nc2ccc(F)cc2)CC1 [Example 17, (R)-2-Cyclopentylmethyl-N-{(S)-1-[4-(4-fluoro-phenylamino)-piperidine-1-carbonyl]-2,2-dimethyl-propyl}-3-(formyl-hydroxy-amino)-propionamide] | – | – | – | – | – | – | – | – | – | – | MIC ([4]; 24 h): 0.2 µg/mL (≈ 0.396 µM); MIC (Streptococcus pyogenes; 24 h): 0.2 µg/mL (≈ 0.396 µM); MIC ([5]; 24 h): 3.1 µg/mL (≈ 6.14 µM); MIC ([6]; 24 h): 0.4 µg/mL (≈ 0.793 µM); MIC ([7]; 24 h): 0.8 µg/mL (≈ 1.59 µM); LD50 at 14 days [8]: > 2000 mg/kg
CC(C)(C)[C@H](NC(=O)[C@H](CC1CCCC1)CN(O)C=O)C(=O)N1CCC(Nc2ccc(O)cc2)CC1 [Example 20, (R)-2-Cyclopentylmethyl-3-(formyl-hydroxy-amino)-N-{(S)-1-[4-(4-hydroxy-phenylamino)-piperidine-1-carbonyl]-2,2-dimethyl-formyl}-propionamide] | – | – | 63 nM | 61 nM | 0.8 µg/mL (≈ 1.59 µM) | 102 nM | 1.6 µg/mL (≈ 3.18 µM) | 25 µg/mL (≈ 49.7 µM) | 25 µg/mL (≈ 49.7 µM) | 3.1 µg/mL (≈ 6.17 µM) | –
CN(c1ccccc1)C1CCN(C(=O)[C@@H](NC(=O)[C@H](CC2CCCC2)CN(O)C=O)C(C)(C)C)CC1 [Example 22, (R)-2-Cyclopentylmethyl-N-{(S)-2,2-dimethyl-1-[4-(methyl-phenyl-amino)-piperidine-1-carbonyl]-propyl}-3-(formyl-hydroxy-amino)-propionamide] | – | – | 25 nM | 42 nM | 0.05 µg/mL (≈ 0.0999 µM) | 113 nM | 0.05 µg/mL (≈ 0.0999 µM) | 3.1 µg/mL (≈ 6.19 µM) | 0.2 µg/mL (≈ 0.399 µM) | 0.2 µg/mL (≈ 0.399 µM) | LD50 at 14 days [8]: > 2000 mg/kg
CC(C)(C)[C@H](NC(=O)[C@H](CC1CCCC1)CN(O)C=O)C(=O)N1CCC(NCc2ccco2)CC1 [Example 27, (R)-2-Cyclopentylmethyl-3-(formyl-hydroxy-amino)-N-((S)-1-{4-[(furan-2-ylmethyl)-amino]-piperidine-1-carbonyl}-2,2-dimethyl-propyl)-propionamide] | 63 nM | 117 nM | 42 nM | – | – | – | – | – | – | – | –
COc1coc(CNC2CCN(C(=O)[C@@H](NC(=O)[C@H](CC3CCCC3)CN(O)C=O)C(C)(C)C)CC2)cc1=O [Example 29, (R)-2-Cyclopentylmethyl-3-(formyl-hydroxy-amino)-N-((S)-1-{4-[(5-methoxy-4-oxo-4H-pyran-2-ylmethyl)-amino]-piperidine-1-carbonyl}-2,2-dimethyl-propyl)-propionamide] | 54 nM | 155 nM | 43 nM | – | – | – | – | – | – | – | –
CC(C)(C)[C@H](NC(=O)[C@H](CC1CCCC1)CN(O)C=O)C(=O)N1CCC(NCc2cc(=O)c(O)co2)CC1 [Example 30, (R)-2-Cyclopentylmethyl-3-(formyl-hydroxy-amino)-N-((S)-1-{4-[(5-hydroxy-4-oxo-4H-pyran-2-ylmethyl)-amino]-piperidin-1-carbonyl}-2,2-dimethyl-propyl)-propionamide] | 62 nM | 160 nM | 50 nM | – | – | – | – | – | – | – | –
